This data set is described as follows: Degradation test by human blood plasma, MALDI-TOFMS analysis. The conditions noted are these: for remaining at 5 min / remaining at 10 min / remaining at 20 min / remaining at 0.5 h / remaining at 1 h / remaining at 2 h: read-out: degradation resistance (proportion of the peptide retained without degradation). The format is in vitro ADME. The protocol:
Specifically, a peptide composed of the amino acid sequence represented by SEQ ID NO: 1 (hereafter sometimes referred to as “PCPP11”) was added to human blood plasma having a concentration of 50% by mass, the mixture was sampled immediately after starting the degradation test (after 0 minutes), and then after 5 minutes, after 10 minutes, after 20 minutes, after 30 minutes, after 60 minutes and after 120 minutes, and the samples were analyzed by MALDI-TOFMS (Matrix Assisted Laser Desorption/Ionization-Time Of Flight Mass Spectrometry). In Table 2, “UK” is an abbreviation for “unknown”. Further, the No. shown for each peptide in Table 2 corresponds with the numerical value recorded on the peaks of the graphs shown in FIG. 1.
Each of the peptides described above was added to human blood plasma having a concentration of 50% by mass, the resulting mixture was sampled immediately after starting the degradation test (after 0 minutes), and then after 5 minutes, after 10 minutes, after 20 minutes, after 30 minutes, after 60 minutes and after 120 minutes, and the samples were analyzed by MALDI-TOFMS. The results are shown in FIGS. 2 to 6 and Tables 4 to 6 shown below. Furthermore, the data for the degradation test by human blood plasma using PCPP11 from Reference Example 1 and the degradation tests by human blood plasma using each of the above peptides are collated in FIG. 7 and Table 7. The SEQ ID NO listed for the FAM-labeled peptide represents the SEQ ID NO of the peptide portion. Further, the No. shown for each peptide in Tables 4 to 6 corresponds with the numerical value recorded on the peaks of the graphs shown in FIGS. 2 to 6. In each table, in those cases where the numerical values are shown separated into an upper row and a lower row, the upper row value indicates the proportion (%) of peak area for two or more peptides relative to the total peak area in the MALDI-TOFMS analysis. On the other hand, the lower row value indicates the proportion (%) of each peptide when the peak area for the two or more peptides is deemed to be 100%. Moreover, for example, for the peptide No. 9 shown in Table 4, the left-side “70.0%” indicates the proportion (%) of the peptide No. 9 when the total peak area for the peptides No. 9 to 11 is deemed to be 100%, whereas the right-side “65%” indicates the proportion (%) of the peptide No. 9 relative to the total peak area in the MALDI-TOFMS analysis. This system is also used in the following tables.

Where [1] appears, read: 50% by mass human blood plasma, 5 min.
The mark [2] stands for this setting: 50% by mass human blood plasma, Start.
Where [3] appears, read: 50% by mass human blood plasma, 10 min.
The mark [4] stands for this setting: 50% by mass human blood plasma, 20 min.
[5] abbreviates: 50% by mass human blood plasma, 30 min.
Where [6] appears, read: 50% by mass human blood plasma, 60 min.
The mark [7] stands for this setting: 50% by mass human blood plasma, 120 min.
Where [8] appears, read: LL peptide added to 50% by mass human blood plasma, 20 min.
[9] abbreviates: LL peptide added to 50% by mass human blood plasma, 60 min.
Setting [10] is: LL peptide added to 50% by mass human blood plasma, 120 min.

The values that follow come from patent US11447525B2 (NIIGATA UNIVERSITY, priority 2018, dated 2022).

Non-standard residues stand in square brackets, D forms with d. Residues, ends and D or L forms follow the SMILES beside them. No end group written: not given here. *: point of attachment. 5FAM = O=C1OC2(c3ccc(O)cc3Oc3cc(O)ccc32)c2ccc(C(=O)*)cc21; NMeR = CN[C@@H](CCCNC(=N)N)C(=O)O

With RRPTTWHKP [compound 1], the remaining at 5 min under setting [1] was found to be 93%. In addition, the “degradation resistance (proportion of the peptide retained without degradation)” value under setting [2] was found to be 100%.

Take `C[C@H](O)[C@@H](NC(=O)[C@@H](Cc1c[nH]c2ccccc12)NC(=O)[C@@H](Cc1c[nH]cn1)NC(=O)[C@@H](CCCCN)NC(=O)[C@H]1CCCN1C(=O)CNC(=O)[C@@H]1CCCN1C(=O)[C@H](CCCCN)NC(=O)[C@H](Cc1c[nH]cn1)NC(=O)[C@H](Cc1c[nH]c2ccccc12)NC(=O)[C@@H](NC(=O)[C@@H](NC(=O)[C@@H]1CCCN1C(=O)[C@H](CCCNC(=N)N)NC(=O)[C@@H](N)CCCNC(=N)N)[C@@H](C)O)[C@@H](C)O)C(=O)N[C@@H](C(=O)N1CCC[C@@H]1C(=O)N[C@H](CCCNC(=N)N)C(=O)N[C@H](CCCNC(=N)N)C(=O)O)[C@H](C)O` [compound 15] (H-RRPTTWHKPG[dP][dK][dH][dW][dT][dT][dP][dR][dR]-OH; N-terminus and C-terminus assumed): the remaining at 5 min under setting [1] was 100%. Further, the remaining at 10 min under setting [3] stood at 100%. In addition, the remaining at 20 min under setting [4] was 94%. The remaining at 0.5 h under setting [5] stood at 84%. The remaining at 1 h under setting [6] was 58%. Also, the remaining at 2 h under setting [7] worked out at 32%. Besides, the “degradation resistance (proportion of the peptide retained without degradation)” value under setting [2] is on record as 100%. Besides, the “proportion of each peptide when the peak area for the two or more peptides is deemed to be 100%” value (“proportion of each peptide … to be 100%” below) is, setting by setting: (Ld peptide added to 50% by mass human blood plasma, 5 min) “(89.0%)”; (Ld peptide added to 50% by mass human blood plasma, 10 min) “(82.2%)”; (Ld peptide added to 50% by mass human blood plasma, 20 min) “(71.9%)”; (Ld peptide added to 50% by mass human blood plasma, 30 min) “(62.3%)”; (Ld peptide added to 50% by mass human blood plasma, 60 min) “(43.0%)”; (Ld peptide added to 50% by mass human blood plasma, 120 min) “(24.6%)”. Moreover, the “proportion of each peptide … to be 100%” value (Ld peptide added to 50% by mass human blood plasma, Start) is reported as “(96.9%)”.

RRPTTWHKP [No. 1, reference compound]: the “persistence time (the time of stable existence)” value (50% by mass human blood plasma) is “less than 20 minutes”.

Consider “RRPTTWHKPGRRPTTWHKPGRRPTTWHKP [compound 12]”, for which, under setting [1], the remaining at 5 min amounted to 100%. The remaining at 10 min under setting [3] is 100%. For the same compound, the remaining at 20 min under setting [4] came out at 100%. The remaining at 0.5 h under setting [5] came to 100%. Moreover, the remaining at 1 h under setting [6] was 100%. The “degradation resistance (proportion of the peptide retained without degradation)” value under setting [2] was found to be 100%.

On to “RRPTTWHKPGRRPTTWHKPGRRPTTWHKP [Peptide 12]”, for which, under setting [7], the remaining at 2 h was determined as 100%.

Consider `C[C@@H](O)[C@H](NC(=O)[C@@H](NC(=O)[C@@H]1CCCN1C(=O)[C@H](CCCNC(=N)N)NC(=O)[C@H](CCCNC(=N)N)NC(=O)CNC(=O)[C@@H]1CCCN1C(=O)[C@H](CCCCN)NC(=O)[C@H](Cc1c[nH]cn1)NC(=O)[C@H](Cc1c[nH]c2ccccc12)NC(=O)[C@@H](NC(=O)[C@@H](NC(=O)[C@@H]1CCCN1C(=O)[C@H](CCCNC(=N)N)N(C)C(=O)[C@@H](N)CCCNC(=N)N)[C@@H](C)O)[C@@H](C)O)[C@@H](C)O)C(=O)N[C@@H](Cc1c[nH]c2ccccc12)C(=O)N[C@@H](Cc1c[nH]cn1)C(=O)N[C@@H](CCCCN)C(=O)N1CCC[C@H]1C(=O)O` [compound 18] (H-R[NMeR]PTTWHKPGRRPTTWHKP-OH; N-terminus and C-terminus assumed), for which, under setting [1], the remaining at 5 min is 100%. The remaining at 10 min under setting [3] is 100%. Further, the remaining at 20 min under setting [4] was 100%. Further, the remaining at 0.5 h under setting [5] worked out at 100%. For the same compound, under setting [6], the remaining at 1 h came to 100%. Further, the remaining at 2 h under setting [7] amounted to 100%. Further, the “degradation resistance (proportion of the peptide retained without degradation)” value under setting [2] is reported as 100%.

RRPTTWHKPGRRPTTWHKP [compound 9]: the “degradation resistance (proportion of the peptide retained without degradation)” value runs as follows: under setting [1], 100%; under setting [2], 100%. Besides, the remaining at 10 min under setting [3] worked out at 84%. For the same compound, the remaining at 20 min under setting [4] stood at 89%. The remaining at 0.5 h under setting [5] is 91%. For the same compound, the remaining at 1 h under setting [6] is 79%. For the same compound, the remaining at 2 h under setting [7] is 65%. Besides, the “proportion of peak area relative to the total peak area in the MALDI-TOFMS analysis” value reads like this: (LL peptide added to 50% by mass human blood plasma, 5 min) 100%; under setting [8], 89%; under setting [9], 79%; under setting [10], 65%; (LL peptide added to 50% by mass human blood plasma, Start) 100%. Also, the “proportion of each peptide … to be 100%” value is given as 92.1% under setting [8]; “(92.1%)” (LL peptide added to 50% by mass human blood plasma, 30 min); 82.1% under setting [9]; 70.0% under setting [10].

Consider `C[C@H](O)[C@@H](NC(=O)[C@@H](Cc1c[nH]c2ccccc12)NC(=O)[C@@H](Cc1c[nH]cn1)NC(=O)[C@@H](CCCCN)NC(=O)[C@H]1CCCN1C(=O)CNC(=O)[C@@H]1CCCN1C(=O)[C@H](CCCCN)NC(=O)[C@H](Cc1c[nH]cn1)NC(=O)[C@H](Cc1c[nH]c2ccccc12)NC(=O)[C@@H](NC(=O)[C@@H](NC(=O)[C@@H]1CCCN1C(=O)[C@H](CCCNC(=N)N)NC(=O)[C@@H](N)CCCNC(=N)N)[C@@H](C)O)[C@@H](C)O)C(=O)N[C@@H](C(=O)N1CCC[C@@H]1C(=O)N[C@H](CCCNC(=N)N)C(=O)N[C@H](CCCNC(=N)N)C(=O)O)[C@H](C)O` [No. 15] (H-RRPTTWHKPG[dP][dK][dH][dW][dT][dT][dP][dR][dR]-OH; N-terminus and C-terminus assumed), for which the “degradation resistance compared with the stand-alone PCPP11 and the FAM-PCPP11” value (50% by mass human blood plasma) is given as “superior degradation resistance”.

For the compound `C[C@@H](O)[C@H](NC(=O)[C@@H](NC(=O)[C@@H]1CCCN1C(=O)[C@H](CCCNC(=N)N)NC(=O)[C@H](CCCNC(=N)N)NC(=O)c1ccc2c(c1)C(=O)OC21c2ccc(O)cc2Oc2cc(O)ccc21)[C@@H](C)O)C(=O)N[C@@H](Cc1c[nH]c2ccccc12)C(=O)N[C@@H](Cc1c[nH]cn1)C(=O)N[C@@H](CCCCN)C(=O)N1CCC[C@H]1C(=O)O` [compound 13] (5FAM-RRPTTWHKP-OH; C-terminus assumed), the remaining at 5 min under setting [1] turned out to be 100%. The remaining at 10 min under setting [3] came to 90%. Also, the remaining at 20 min under setting [4] was found to be 92%. Moreover, the remaining at 0.5 h under setting [5] is 87%. In addition, the remaining at 1 h under setting [6] worked out at 73%. The “degradation resistance (proportion of the peptide retained without degradation)” value under setting [2] is 100%. Further, the “proportion of peak area relative to the total peak area in the MALDI-TOFMS analysis” value is listed as 47.2% (FAM-L peptide added to 50% by mass human blood plasma, 5 min); 43.2% (FAM-L peptide added to 50% by mass human blood plasma, 10 min); 45.6% (FAM-L peptide added to 50% by mass human blood plasma, 20 min); 43.6% (FAM-L peptide added to 50% by mass human blood plasma, 30 min); 37.4% (FAM-L peptide added to 50% by mass human blood plasma, 60 min); 13.5% (FAM-L peptide added to 50% by mass human blood plasma, 120 min). Moreover, the “proportion of peak area relative to the total peak area in the MALDI-TOFMS analysis” value (FAM-L peptide added to 50% by mass human blood plasma, Start) is reported as 47.6%.

Consider RRPTTWHKP [Peptide 1], for which the remaining at 10 min under setting [3] is 67%.

On to RRPTTWHKPGRRPTTWHKPGRRPTTWHKP [No. 12], for which the “degradation resistance compared with the stand-alone PCPP11 and the FAM-PCPP11” value (50% by mass human blood plasma) is reported as “superior degradation resistance”. Moreover, where the note is “50% by mass human blood plasma, within 120 minutes of starting the test”, the degradation products observed entry is given as “no degradation products were observed”.
